This is an account of results in patent US20180188224A1, “METHOD FOR CONSTRUCTING A SENSORY SPACE” (CENTRE SCIENTIFIQUE ET TECHNIQUE DU BATIMENT (CSTB), priority 2015, published 2018).

In the test the test system is subject 3. In words: Skin blood microcirculation (SKBF) response to taste stimuli, PCA sensory space (ESRP). Format: in vivo, human. Conditions: concentration 4. The text has this: A Periflux PF 5010 (Perimed AB, Sweden) system was chosen, which enables non-invasive monitoring of blood perfusion in the capillaries, arterioles and venules.
The unit of blood perfusion is arbitrary and corresponds to the product of the mean rate of displacement of the red blood cells by their concentration. The system Periflux PF 5010 has a 780 nm, 1 mm diameter laser beam without thermal effect. An optical fiber probe PR407 is used. The low-energy laser beam is transmitted by the probe to the tissue. A portion of the light reflects off the static structures and another portion of the light reflects off the moving blood cells. When the light reflects off a moving cell, the wavelength is modified, which corresponds to the Doppler effect. The scattered light collected by the optical fiber is used to calculate the perfusion value. The measurement is expressed in perfusion units (PU). Recording was carried out on the pad of the index finger of the non-dominant hand, due to the high level of vascularization of this zone. The perfusion signals were recorded by an 8-channel PowerLab PL35088/35 acquisition system; the data were collected at a frequency of 1 kHz and analyzed by the LabChart® software (AD instruments Ltd, United Kingdom).
. Then, the peak was analyzed manually by selecting the whole of the peak and analyzing it with the LabChart® software (FIG. 1).
Several shape parameters were extracted from the signal (i.e. amplitude, duration, gradient). […]
The SKBF responses were analyzed individually by one-way ANOVA (product effect), the subjects having their own “preferential channel” (Lacey, J. I., Bateman, D. E. & VanLEHN, R., 1953, Autonomic response specificity: An experimental study. Psychosomatic Medicine, 15, 8-21). […]

On to `[Cl-].[Na+]` [NaCl, sodium chloride], for which the “SKBF disturbance (signal width, area of the peak; ANOVA)” value is recorded as “significantly stronger disturbance than the others”.

As to `O=C(O)CC(O)(CC(=O)O)C(=O)O` [Citric acid, citric acid], the “SKBF disturbance (signal width, area of the peak; ANOVA)” value is recorded as “significantly stronger disturbance than the others”.
